Laboratory results: PubChem BioAssay (NCI)
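Each compound was tested at five concentrations against cells in 96-well plates for 48 hours. Here, GI50 denotes the concentration required for 50% inhibition of growth. TGI marks complete inhibition of growth.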

Assays:
Assay in all cases: growth of human tumour cells (NCI), 48 h
HOP-92 NSCLC = test system: HOP-92 NSCLC
SK-OV-3 ovarian = test system: SK-OV-3 ovarian
SK-MEL-28 melanoma = test system: SK-MEL-28 melanoma
KM12 colon = test system: KM12 colon
MALME-3M melanoma = test system: MALME-3M melanoma
SW-620 colon = test system: SW-620 colon
DU-145 prostate = test system: DU-145 prostate
MOLT-4 leukemia = test system: MOLT-4 leukemia
TK-10 renal = test system: TK-10 renal
CCRF-CEM leukemia = test system: CCRF-CEM leukemia

With `COc1cc(OC)c(/C=C/C(=O)c2c(OC)cc(OC)cc2OC)c(OC)c1` the GI50 (HOP-92 NSCLC) was 0.534 µM, the TGI (HOP-92 NSCLC) was 6.5 µM and the GI50 (SK-OV-3 ovarian) was 2.66 µM. The TGI (SK-OV-3 ovarian) was 25.9 µM, the GI50 (SK-MEL-28 melanoma) was 0.855 µM and the TGI (SK-MEL-28 melanoma) was 5.24 µM. The GI50 (KM12 colon) was 0.469 µM, the TGI (KM12 colon) was 2.57 µM and the GI50 (MALME-3M melanoma) was 1.07 µM. The TGI (MALME-3M melanoma) was over 100 µM, the GI50 (SW-620 colon) was 0.417 µM and the TGI (SW-620 colon) was 2.91 µM. It also gave a GI50 (DU-145 prostate) of 2.21 µM, a TGI (DU-145 prostate) of 8.51 µM and a GI50 (MOLT-4 leukemia) of 1.53 µM. It also gave a TGI (MOLT-4 leukemia) of over 100 µM, a GI50 (TK-10 renal) of 3.31 µM and a TGI (TK-10 renal) of over 100 µM. For the same molecule, the GI50 (CCRF-CEM leukemia) was 0.876 µM and the TGI (CCRF-CEM leukemia) was over 100 µM.

In the case of `CCC(=O)NC1=C(Cl)C(=O)C(NC(=O)CC)=C(Cl)C1=O`, the GI50 (HOP-92 NSCLC) is reported as 9.98 µM, the TGI (HOP-92 NSCLC) is reported as 28.8 µM and the GI50 (SK-OV-3 ovarian) is reported as over 73.1 µM. It also gave a TGI (SK-OV-3 ovarian) of over 100 µM, a GI50 (SK-MEL-28 melanoma) of 10.5 µM and a TGI (SK-MEL-28 melanoma) of 23.2 µM. The GI50 (KM12 colon) was over 43.9 µM, the TGI (KM12 colon) was over 57.8 µM and the GI50 (MALME-3M melanoma) was 5.17 µM. It also gave a TGI (MALME-3M melanoma) of 10.1 µM, a GI50 (SW-620 colon) of 5.77 µM and a TGI (SW-620 colon) of 11 µM. The GI50 (DU-145 prostate) was 9.49 µM, the TGI (DU-145 prostate) was 22.3 µM and the GI50 (MOLT-4 leukemia) was 9.55 µM. The TGI (MOLT-4 leukemia) was over 21.9 µM, the GI50 (TK-10 renal) was 6.91 µM and the TGI (TK-10 renal) was 15.4 µM. The GI50 (CCRF-CEM leukemia) was 3.04 µM and the TGI (CCRF-CEM leukemia) was over 21.6 µM.

For `CC(NNC(=S)N1CCN(c2ccccn2)CC1)c1nccc2ccccc12` (stereo not given), the TGI (HOP-92 NSCLC) was 7.79 µM, the TGI (SK-OV-3 ovarian) was 15.1 µM and the TGI (SK-MEL-28 melanoma) was 18.5 µM. For the same molecule, the TGI (KM12 colon) was 19 µM, the TGI (MALME-3M melanoma) was 15.5 µM and the TGI (SW-620 colon) was 20.1 µM. It also gave a TGI (DU-145 prostate) of 13.8 µM, a TGI (MOLT-4 leukemia) of 10.3 µM and a TGI (TK-10 renal) of 16.3 µM. The TGI (CCRF-CEM leukemia) was 1.02 µM.

With `CN1CCN(Cc2ccc(NC(=O)c3cncc(C#Cc4ccc(N)nc4)c3)cc2C(F)(F)F)CC1` the GI50 (HOP-92 NSCLC) was 0.408 µM, the TGI (HOP-92 NSCLC) was 1.76 µM and the GI50 (SK-OV-3 ovarian) was 0.693 µM. For the same molecule, the TGI (SK-OV-3 ovarian) was 4.69 µM, the GI50 (SK-MEL-28 melanoma) was 1.47 µM and the TGI (SK-MEL-28 melanoma) was 5.54 µM. It also gave a GI50 (KM12 colon) of 0.0227 µM, a TGI (KM12 colon) of 5.3 µM and a GI50 (MALME-3M melanoma) of 0.535 µM. It also gave a TGI (MALME-3M melanoma) of 1.46 µM, a GI50 (SW-620 colon) of 0.893 µM and a TGI (SW-620 colon) of 3.37 µM. For the same molecule, the GI50 (DU-145 prostate) was 0.845 µM, the TGI (DU-145 prostate) was 6.71 µM and the GI50 (MOLT-4 leukemia) was 1.03 µM. The TGI (MOLT-4 leukemia) was 6.82 µM, the GI50 (TK-10 renal) was 1.63 µM and the TGI (TK-10 renal) was 9.54 µM. For the same molecule, the GI50 (CCRF-CEM leukemia) was 1.46 µM and the TGI (CCRF-CEM leukemia) was 11.8 µM.

In the case of `COc1cc2ncnc(Oc3ccc(NC(=O)Nc4ccc(CN5CCOCC5)c(C(F)(F)F)c4)c4ccccc34)c2cc1OC`, the GI50 (HOP-92 NSCLC) is reported as 0.413 µM, the TGI (HOP-92 NSCLC) is reported as 6.74 µM and the GI50 (SK-OV-3 ovarian) is reported as 0.254 µM. The TGI (SK-OV-3 ovarian) was 1.26 µM, the GI50 (SK-MEL-28 melanoma) was 0.666 µM and the TGI (SK-MEL-28 melanoma) was 3.03 µM. It also gave a GI50 (KM12 colon) of 0.199 µM, a TGI (KM12 colon) of 2.3 µM and a GI50 (MALME-3M melanoma) of 0.302 µM. It also gave a TGI (MALME-3M melanoma) of 1.54 µM, a GI50 (SW-620 colon) of 1.04 µM and a TGI (SW-620 colon) of 7.43 µM. For the same molecule, the GI50 (DU-145 prostate) was 1.59 µM, the TGI (DU-145 prostate) was 12.4 µM and the GI50 (MOLT-4 leukemia) was 0.199 µM. The TGI (MOLT-4 leukemia) was 2.08 µM, the GI50 (TK-10 renal) was 0.445 µM and the TGI (TK-10 renal) was 6.95 µM. For the same molecule, the GI50 (CCRF-CEM leukemia) was 1.18 µM and the TGI (CCRF-CEM leukemia) was 40.7 µM.

`CCC(=O)OCOc1ccc(/C=C2\CCC(CN(C)C)C2=O)cc1` (stereo not given) gave a TGI (HOP-92 NSCLC) of 29.5 µM, a TGI (SK-OV-3 ovarian) of 29.1 µM and a TGI (SK-MEL-28 melanoma) of 9.73 µM. The TGI (KM12 colon) was 13 µM, the TGI (MALME-3M melanoma) was 10.6 µM and the TGI (SW-620 colon) was 7.38 µM. It also gave a TGI (DU-145 prostate) of 30.6 µM, a TGI (MOLT-4 leukemia) of 8.07 µM and a TGI (TK-10 renal) of 22.2 µM. The TGI (CCRF-CEM leukemia) was over 23.1 µM.

Work on `CCN1CCN(c2ccc(NC(=O)Nc3nc4ccc(-c5ccccc5OC)cc4s3)cc2)CC1` yielded a GI50 (HOP-92 NSCLC) of 1.47 µM, a TGI (HOP-92 NSCLC) of 3.75 µM and a GI50 (SK-OV-3 ovarian) of 1.79 µM. For the same molecule, the TGI (SK-OV-3 ovarian) was 3.55 µM, the GI50 (SK-MEL-28 melanoma) was 1.76 µM and the TGI (SK-MEL-28 melanoma) was 3.26 µM. It also gave a GI50 (KM12 colon) of 1.75 µM, a TGI (KM12 colon) of 3.33 µM and a GI50 (MALME-3M melanoma) of 1.71 µM. For the same molecule, the TGI (MALME-3M melanoma) was 3.34 µM, the GI50 (SW-620 colon) was 1.94 µM and the TGI (SW-620 colon) was 3.55 µM. It also gave a GI50 (DU-145 prostate) of 1.75 µM, a TGI (DU-145 prostate) of 3.26 µM and a GI50 (MOLT-4 leukemia) of 1.8 µM. It also gave a TGI (MOLT-4 leukemia) of 3.67 µM, a GI50 (TK-10 renal) of 2.12 µM and a TGI (TK-10 renal) of 3.6 µM. It also gave a GI50 (CCRF-CEM leukemia) of 1.81 µM and a TGI (CCRF-CEM leukemia) of 4.09 µM.

Molecule `CC1=CC(C)=N/C(=N/S(=O)(=O)c2cc(C)c(Cl)cc2SCc2ccccc2)NN1` has a GI50 (HOP-92 NSCLC) of 17.9 µM, a TGI (HOP-92 NSCLC) of 62.8 µM and a GI50 (SK-OV-3 ovarian) of over 100 µM. The TGI (SK-OV-3 ovarian) was over 100 µM, the GI50 (SK-MEL-28 melanoma) was over 100 µM and the TGI (SK-MEL-28 melanoma) was over 100 µM. It also gave a GI50 (KM12 colon) of over 100 µM, a TGI (KM12 colon) of over 100 µM and a GI50 (MALME-3M melanoma) of over 100 µM. For the same molecule, the TGI (MALME-3M melanoma) was over 100 µM, the GI50 (SW-620 colon) was over 100 µM and the TGI (SW-620 colon) was over 100 µM. The GI50 (DU-145 prostate) was over 100 µM, the TGI (DU-145 prostate) was over 100 µM and the GI50 (MOLT-4 leukemia) was over 100 µM. For the same molecule, the TGI (MOLT-4 leukemia) was over 100 µM, the GI50 (TK-10 renal) was over 100 µM and the TGI (TK-10 renal) was over 100 µM. For the same molecule, the GI50 (CCRF-CEM leukemia) was over 100 µM and the TGI (CCRF-CEM leukemia) was over 100 µM.

Work on `COC(=O)C1=C(C)NC(=S)NC1c1ccc(N(CCCl)CCCl)cc1Cl` (stereo not given) yielded a TGI (HOP-92 NSCLC) of over 100 µM, a TGI (SK-OV-3 ovarian) of over 100 µM and a TGI (SK-MEL-28 melanoma) of over 100 µM. For the same molecule, the TGI (KM12 colon) was over 73.4 µM, the TGI (MALME-3M melanoma) was 41.7 µM and the TGI (SW-620 colon) was over 100 µM. The TGI (DU-145 prostate) was over 81.1 µM, the TGI (MOLT-4 leukemia) was 40 µM and the TGI (TK-10 renal) was 98.6 µM. It also gave a TGI (CCRF-CEM leukemia) of over 32.7 µM.

`C=C1C(=O)O[C@@H]2/C=C(/C)[C@@H](OC(C)=O)C[C@@H](O)/C(C)=C\[C@@H](OC(=O)[C@]3(C)O[C@@H]3C)[C@@H]12` showed a TGI (HOP-92 NSCLC) of 26.7 µM, a TGI (SK-OV-3 ovarian) of over 100 µM and a TGI (SK-MEL-28 melanoma) of 23.2 µM. The TGI (KM12 colon) was 36.3 µM, the TGI (MALME-3M melanoma) was 11.6 µM and the TGI (SW-620 colon) was 18.5 µM. For the same molecule, the TGI (DU-145 prostate) was 28.1 µM, the TGI (MOLT-4 leukemia) was 20.7 µM and the TGI (TK-10 renal) was 29.5 µM. For the same molecule, the TGI (CCRF-CEM leukemia) was 11.7 µM.

`CC1=C(CCC(C)CO)O[C@H]2C[C@H]3[C@@H]4CC[C@H]5C[C@@H](O)CC[C@]5(C)[C@H]4CC(=O)[C@]3(C)[C@@H]12` (stereo not given in full) showed a TGI (HOP-92 NSCLC) of 67.3 µM, a TGI (SK-OV-3 ovarian) of 43.4 µM and a TGI (SK-MEL-28 melanoma) of over 78.5 µM. For the same molecule, the TGI (KM12 colon) was 30.4 µM, the TGI (MALME-3M melanoma) was 57.1 µM and the TGI (SW-620 colon) was over 100 µM. The TGI (DU-145 prostate) was 55.1 µM, the TGI (MOLT-4 leukemia) was 19.2 µM and the TGI (TK-10 renal) was 46.7 µM. It also gave a TGI (CCRF-CEM leukemia) of 23.8 µM.
